How the values were obtained:
[1] = target: AAK1 (human) (UniProt Q2M2I8); experiment: KINOMEscan competition binding; conditions: compound 10.0 µM
[2] = target: ACVR2A (human) (UniProt P27037); experiment: KINOMEscan competition binding; conditions: compound 10.0 µM
[3] = target: ACVR2B (human) (UniProt Q13705); experiment: KINOMEscan competition binding; conditions: compound 10.0 µM
[4] = target: CDK16 (human) (UniProt Q00536); experiment: KINOMEscan competition binding; conditions: compound 10.0 µM
[5] = target: CDK7 (human) (UniProt P50613); experiment: KINOMEscan competition binding; conditions: compound 10.0 µM
[6] = target: CSNK2A2 (human) (UniProt P19784); experiment: KINOMEscan competition binding; conditions: compound 10.0 µM
[7] = target: DAPK1 (human) (UniProt P53355); experiment: KINOMEscan competition binding; conditions: compound 10.0 µM
[8] = target: DAPK2 (human) (UniProt Q9UIK4); experiment: KINOMEscan competition binding; conditions: compound 10.0 µM
[9] = target: DAPK3 (human) (UniProt O43293); experiment: KINOMEscan competition binding; conditions: compound 10.0 µM
[10] = target: DYRK1B (human) (UniProt Q9Y463); experiment: KINOMEscan competition binding; conditions: compound 10.0 µM
[11] = target: GAK (human) (UniProt O14976); experiment: KINOMEscan competition binding; conditions: compound 10.0 µM
[12] = target: GSK3A (human) (UniProt P49840); experiment: KINOMEscan competition binding; conditions: compound 10.0 µM
[13] = target: HIPK1 (human) (UniProt Q86Z02); experiment: KINOMEscan competition binding; conditions: compound 10.0 µM
[14] = target: MAP2K3 (human) (UniProt P46734); experiment: KINOMEscan competition binding; conditions: compound 10.0 µM
[15] = target: MAPK12 (human) (UniProt P53778); experiment: KINOMEscan competition binding; conditions: compound 10.0 µM
[16] = target: MAPK15 (human) (UniProt Q8TD08); experiment: KINOMEscan competition binding; conditions: compound 10.0 µM
[17] = target: MINK1 (human) (UniProt Q8N4C8); experiment: KINOMEscan competition binding; conditions: compound 10.0 µM
[18] = target: MKNK2 (human) (UniProt Q9HBH9); experiment: KINOMEscan competition binding; conditions: compound 10.0 µM
[19] = target: MYLK (human) (UniProt Q15746); experiment: KINOMEscan competition binding; conditions: compound 10.0 µM
[20] = target: MYLK4 (human) (UniProt Q86YV6); experiment: KINOMEscan competition binding; conditions: compound 10.0 µM
[21] = target: PIK3CG (human) (UniProt P48736); experiment: KINOMEscan competition binding; conditions: compound 10.0 µM
[22] = target: PIM1 (human) (UniProt P11309); experiment: KINOMEscan competition binding; conditions: compound 10.0 µM
[23] = target: PIM2 (human) (UniProt Q9P1W9); experiment: KINOMEscan competition binding; conditions: compound 10.0 µM
[24] = target: PIM3 (human) (UniProt Q86V86); experiment: KINOMEscan competition binding; conditions: compound 10.0 µM
[25] = target: PLK4 (human) (UniProt O00444); experiment: KINOMEscan competition binding; conditions: compound 10.0 µM
[26] = target: RIOK1 (human) (UniProt Q9BRS2); experiment: KINOMEscan competition binding; conditions: compound 10.0 µM
[27] = target: RPS6KA4 KD2 (human) (UniProt O75676); experiment: KINOMEscan competition binding; conditions: compound 10.0 µM
[28] = target: STK17A (human) (UniProt Q9UEE5); experiment: KINOMEscan competition binding; conditions: compound 10.0 µM
[29] = target: STK17B (human) (UniProt O94768); experiment: KINOMEscan competition binding; conditions: compound 10.0 µM
[30] = target: TAOK1 (human) (UniProt Q7L7X3); experiment: KINOMEscan competition binding; conditions: compound 10.0 µM
[31] = target: TAOK3 (human) (UniProt Q9H2K8); experiment: KINOMEscan competition binding; conditions: compound 10.0 µM
[32] = target: TGFBR2 (human) (UniProt P37173); experiment: KINOMEscan competition binding; conditions: compound 10.0 µM
[33] = target: TTK (human) (UniProt P33981); experiment: KINOMEscan competition binding; conditions: compound 10.0 µM
[34] = target: TYK2 JH2 pseudokinase (human) (UniProt P29597); experiment: KINOMEscan competition binding; conditions: compound 10.0 µM
[35] = target: PIM1 (human) (UniProt P11309); experiment: SelectScreen, TR FRET
[36] = target: PIM2 (human) (UniProt Q9P1W9); experiment: SelectScreen, TR FRET
[37] = target: CLK4 (human) (UniProt Q9HAZ1); experiment: KINOMEscan competition binding; conditions: compound 10.0 µM
[38] = target: CSNK2A1 (human) (UniProt P68400); experiment: KINOMEscan competition binding; conditions: compound 10.0 µM
[39] = test system: EIF2AK4 KD2 (human), Q9P2K8 [S808G]; experiment: KINOMEscan competition binding; conditions: compound 10.0 µM
[40] = target: ZAP70 (human) (UniProt P43403); experiment: KINOMEscan competition binding; conditions: compound 10.0 µM

Sequence of PIM1 (human) (P11309 whole entry, looked up): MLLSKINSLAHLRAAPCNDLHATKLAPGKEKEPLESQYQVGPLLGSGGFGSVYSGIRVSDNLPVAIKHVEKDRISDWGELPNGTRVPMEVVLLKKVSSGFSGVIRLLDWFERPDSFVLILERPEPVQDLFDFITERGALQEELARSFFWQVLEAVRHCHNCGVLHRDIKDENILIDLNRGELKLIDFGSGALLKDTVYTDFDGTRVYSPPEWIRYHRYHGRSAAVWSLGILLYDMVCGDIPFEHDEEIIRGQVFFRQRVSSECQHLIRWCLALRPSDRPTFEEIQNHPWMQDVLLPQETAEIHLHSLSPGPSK
Sequence of PIM2 (human) (Q9P1W9 whole entry, looked up): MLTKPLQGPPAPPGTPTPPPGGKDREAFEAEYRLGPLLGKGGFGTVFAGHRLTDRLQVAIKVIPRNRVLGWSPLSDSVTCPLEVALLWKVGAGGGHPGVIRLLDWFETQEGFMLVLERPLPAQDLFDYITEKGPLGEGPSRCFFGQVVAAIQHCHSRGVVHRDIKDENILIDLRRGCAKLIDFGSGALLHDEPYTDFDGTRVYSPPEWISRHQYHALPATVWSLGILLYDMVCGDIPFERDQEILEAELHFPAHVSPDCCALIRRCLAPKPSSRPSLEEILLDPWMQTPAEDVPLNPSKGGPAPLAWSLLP
Sequence of DAPK2 (human) (Q9UIK4 whole entry, looked up): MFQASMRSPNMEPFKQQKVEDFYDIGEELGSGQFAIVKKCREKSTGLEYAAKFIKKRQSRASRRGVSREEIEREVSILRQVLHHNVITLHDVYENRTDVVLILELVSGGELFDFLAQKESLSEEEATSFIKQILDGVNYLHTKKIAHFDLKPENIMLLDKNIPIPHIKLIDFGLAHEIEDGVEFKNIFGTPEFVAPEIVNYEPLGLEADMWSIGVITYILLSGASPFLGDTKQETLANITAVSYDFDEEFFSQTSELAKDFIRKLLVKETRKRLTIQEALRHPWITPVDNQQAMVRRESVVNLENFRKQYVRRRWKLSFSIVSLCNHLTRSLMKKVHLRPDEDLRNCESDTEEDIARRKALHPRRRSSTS
Sequence of STK17A (human) (Q9UEE5 whole entry, looked up): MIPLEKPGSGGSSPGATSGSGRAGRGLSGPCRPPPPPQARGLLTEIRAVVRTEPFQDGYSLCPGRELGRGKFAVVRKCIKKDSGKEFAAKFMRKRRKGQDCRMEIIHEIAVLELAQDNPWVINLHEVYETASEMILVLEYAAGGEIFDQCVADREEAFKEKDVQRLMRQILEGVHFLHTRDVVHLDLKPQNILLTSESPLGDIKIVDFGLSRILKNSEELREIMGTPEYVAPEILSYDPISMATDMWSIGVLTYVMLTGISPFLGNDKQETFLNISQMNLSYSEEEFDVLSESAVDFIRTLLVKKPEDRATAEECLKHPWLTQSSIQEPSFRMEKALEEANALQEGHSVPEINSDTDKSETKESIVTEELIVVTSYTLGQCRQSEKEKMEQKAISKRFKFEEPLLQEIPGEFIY
Sequence of CSNK2A2 (human) (P19784 whole entry, looked up): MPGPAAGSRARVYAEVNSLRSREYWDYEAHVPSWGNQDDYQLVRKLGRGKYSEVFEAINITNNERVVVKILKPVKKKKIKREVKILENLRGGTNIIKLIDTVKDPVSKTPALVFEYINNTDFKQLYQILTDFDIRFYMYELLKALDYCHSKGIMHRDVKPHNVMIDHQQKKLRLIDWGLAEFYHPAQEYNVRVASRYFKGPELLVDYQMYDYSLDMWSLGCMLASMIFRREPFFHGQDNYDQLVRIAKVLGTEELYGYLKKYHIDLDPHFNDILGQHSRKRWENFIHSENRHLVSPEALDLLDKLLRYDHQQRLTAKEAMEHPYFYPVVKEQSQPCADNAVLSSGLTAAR
Sequence of CDK7 (human) (P50613 whole entry, looked up): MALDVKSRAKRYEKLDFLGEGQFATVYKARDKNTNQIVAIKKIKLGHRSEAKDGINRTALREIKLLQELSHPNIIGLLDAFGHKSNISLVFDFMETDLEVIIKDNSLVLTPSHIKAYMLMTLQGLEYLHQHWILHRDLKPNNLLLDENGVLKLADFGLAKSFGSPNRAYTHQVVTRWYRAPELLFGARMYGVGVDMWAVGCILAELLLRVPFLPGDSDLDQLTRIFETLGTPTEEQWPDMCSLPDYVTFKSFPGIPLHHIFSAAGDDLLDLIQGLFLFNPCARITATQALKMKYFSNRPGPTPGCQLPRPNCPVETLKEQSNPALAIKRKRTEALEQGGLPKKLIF
Sequence of MAPK12 (human) (P53778 whole entry, looked up): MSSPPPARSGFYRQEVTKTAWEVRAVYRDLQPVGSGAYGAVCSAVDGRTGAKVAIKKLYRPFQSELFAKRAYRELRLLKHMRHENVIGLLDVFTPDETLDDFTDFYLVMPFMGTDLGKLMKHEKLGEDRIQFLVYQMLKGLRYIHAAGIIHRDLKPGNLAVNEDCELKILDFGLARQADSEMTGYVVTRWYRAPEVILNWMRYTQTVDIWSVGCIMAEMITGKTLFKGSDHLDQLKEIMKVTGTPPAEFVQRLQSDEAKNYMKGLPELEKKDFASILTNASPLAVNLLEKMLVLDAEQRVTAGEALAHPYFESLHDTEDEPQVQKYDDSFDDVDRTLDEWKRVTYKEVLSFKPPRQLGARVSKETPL
Sequence of GSK3A (human) (P49840 whole entry, looked up): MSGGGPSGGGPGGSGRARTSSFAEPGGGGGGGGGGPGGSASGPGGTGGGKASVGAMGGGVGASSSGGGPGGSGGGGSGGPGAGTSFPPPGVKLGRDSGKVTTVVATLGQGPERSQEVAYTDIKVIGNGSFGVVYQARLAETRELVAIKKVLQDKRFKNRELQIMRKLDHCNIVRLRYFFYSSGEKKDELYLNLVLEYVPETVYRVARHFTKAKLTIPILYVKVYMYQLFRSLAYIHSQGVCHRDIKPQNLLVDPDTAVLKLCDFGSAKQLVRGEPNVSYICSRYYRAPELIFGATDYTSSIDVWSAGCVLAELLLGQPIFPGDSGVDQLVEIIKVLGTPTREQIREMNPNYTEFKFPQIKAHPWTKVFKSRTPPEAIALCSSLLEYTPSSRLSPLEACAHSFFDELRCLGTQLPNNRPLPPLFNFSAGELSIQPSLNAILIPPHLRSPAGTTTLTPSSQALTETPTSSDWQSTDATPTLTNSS
Sequence of TGFBR2 (human) (P37173 whole entry, looked up): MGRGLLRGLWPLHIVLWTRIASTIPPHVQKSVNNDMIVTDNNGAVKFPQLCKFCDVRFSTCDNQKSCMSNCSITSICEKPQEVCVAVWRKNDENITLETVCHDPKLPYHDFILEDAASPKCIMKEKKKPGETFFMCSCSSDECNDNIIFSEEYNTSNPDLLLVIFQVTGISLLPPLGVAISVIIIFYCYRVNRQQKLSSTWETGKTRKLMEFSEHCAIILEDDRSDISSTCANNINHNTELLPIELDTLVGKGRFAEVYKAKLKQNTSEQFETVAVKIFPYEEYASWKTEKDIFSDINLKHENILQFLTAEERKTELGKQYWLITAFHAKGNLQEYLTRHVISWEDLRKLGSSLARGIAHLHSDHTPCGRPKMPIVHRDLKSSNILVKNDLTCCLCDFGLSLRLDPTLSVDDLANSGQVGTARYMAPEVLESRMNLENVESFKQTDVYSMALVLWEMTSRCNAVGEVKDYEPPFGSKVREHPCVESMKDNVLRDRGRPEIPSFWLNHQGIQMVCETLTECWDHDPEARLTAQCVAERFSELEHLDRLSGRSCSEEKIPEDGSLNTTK
Sequence of STK17B (human) (O94768 whole entry, looked up): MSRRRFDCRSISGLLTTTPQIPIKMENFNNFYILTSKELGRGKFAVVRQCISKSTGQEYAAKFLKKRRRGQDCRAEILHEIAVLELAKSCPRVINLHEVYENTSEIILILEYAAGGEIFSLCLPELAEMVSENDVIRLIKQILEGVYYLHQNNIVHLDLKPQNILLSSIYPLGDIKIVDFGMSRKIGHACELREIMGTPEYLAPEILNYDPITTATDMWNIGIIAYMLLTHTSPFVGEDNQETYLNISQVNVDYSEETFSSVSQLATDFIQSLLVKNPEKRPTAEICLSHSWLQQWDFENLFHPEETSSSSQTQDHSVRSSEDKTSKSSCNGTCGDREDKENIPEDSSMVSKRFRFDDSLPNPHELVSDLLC
Sequence of DYRK1B (human) (Q9Y463 whole entry, looked up): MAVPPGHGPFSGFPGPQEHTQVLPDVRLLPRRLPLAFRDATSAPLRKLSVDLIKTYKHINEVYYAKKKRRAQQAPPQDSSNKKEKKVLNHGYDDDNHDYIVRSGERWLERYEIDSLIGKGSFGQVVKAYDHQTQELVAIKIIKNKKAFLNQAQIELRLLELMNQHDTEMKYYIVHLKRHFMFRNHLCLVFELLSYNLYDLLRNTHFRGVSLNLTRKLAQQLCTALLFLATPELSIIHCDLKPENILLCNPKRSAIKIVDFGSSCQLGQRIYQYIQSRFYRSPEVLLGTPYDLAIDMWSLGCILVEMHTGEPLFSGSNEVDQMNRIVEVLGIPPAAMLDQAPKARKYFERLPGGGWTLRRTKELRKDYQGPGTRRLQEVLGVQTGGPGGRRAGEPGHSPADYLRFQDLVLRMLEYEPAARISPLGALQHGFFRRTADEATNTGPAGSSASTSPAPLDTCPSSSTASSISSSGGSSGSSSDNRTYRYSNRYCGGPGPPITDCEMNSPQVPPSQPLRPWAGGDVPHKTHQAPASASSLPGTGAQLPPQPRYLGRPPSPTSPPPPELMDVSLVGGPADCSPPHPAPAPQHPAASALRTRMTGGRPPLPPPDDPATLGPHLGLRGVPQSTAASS

| SMILES | kinase still bound, per cent of control [5] | kinase still bound, per cent of control [6] | kinase still bound, per cent of control [8] | kinase still bound, per cent of control [12] | kinase still bound, per cent of control [13] | kinase still bound, per cent of control [15] | kinase still bound, per cent of control [21] | kinase still bound, per cent of control [22] | kinase still bound, per cent of control [23] | kinase still bound, per cent of control [24] | kinase still bound, per cent of control [25] | kinase still bound, per cent of control [28] | kinase still bound, per cent of control [29] | kinase still bound, per cent of control [32] | kinase still bound, per cent of control [34] | IC50 [35] | IC50 [36] | other results |
| --- | --- | --- | --- | --- | --- | --- | --- | --- | --- | --- | --- | --- | --- | --- | --- | --- | --- | --- |
| CS(=O)(=O)Nc1ccc(-c2ccc(/C=C3\SC(=N)NC3=O)o2)cc1 | 1.3% | 28% | 9% | 10% | 0% | 12% | 25% | 2.9% | 0.9% | 5% | 0.3% | 0.65% | 2.8% | 2.8% | 21% | 204 nM | 274 nM | kinase still bound, per cent of control [1]: 34%; kinase still bound, per cent of control [2]: 7.5%; kinase still bound, per cent of control [3]: 14%; kinase still bound, per cent of control [4]: 0.3%; kinase still bound, per cent of control [7]: 8.7%; kinase still bound, per cent of control [9]: 17%; kinase still bound, per cent of control [10]: 24%; kinase still bound, per cent of control [11]: 22%; kinase still bound, per cent of control [14]: 7.8%; kinase still bound, per cent of control [16]: 0.65%; kinase still bound, per cent of control [17]: 30%; kinase still bound, per cent of control [18]: 33%; kinase still bound, per cent of control [19]: 12%; kinase still bound, per cent of control [20]: 8.2%; kinase still bound, per cent of control [26]: 21%; kinase still bound, per cent of control [27]: 13%; kinase still bound, per cent of control [30]: 3%; kinase still bound, per cent of control [31]: 16%; kinase still bound, per cent of control [33]: 23% |
| COc1cc(C(N)=O)ccc1-c1ccc(/C=C2\SC(=N)NC2=O)o1 | 29% | 31% | 34% | 28% | 5.2% | 27% | 28% | 3.4% | 0.95% | 5.6% | 22% | 0.4% | 1.6% | 14% | 5.1% | 861 nM | 762 nM | kinase still bound, per cent of control [37]: 17%; kinase still bound, per cent of control [38]: 18%; kinase still bound, per cent of control [39]: 29%; kinase still bound, per cent of control [40]: 29% |

— the kinase profiling compilation of Christmann-Franck et al. (2016)
